pEC50: −log10 of the molar value.
The compounds below were run against T1, human recombinant mGluR5 (Homo sapiens, UniProt P41594) (assay: positive modulation of mGluR5, calcium based FLIPR assay). Conditions: EC50 of the modulation; HEK 293 cell line expressing human recombinant mGluR5; glutamate at approximately 5% basal stimulation; peak height of Ca fluorescence signal.
T1 construct: expressed in transfected cells; host or cells: HEK 293
Experimental: The positive modulation of mGluR5 is measured in a HEK 293 cell line expressing human recombinant mGluR5 and is detected with calcium based FLIPR assay. The cells are cultured with DMEM supplemented with 10% FCS, 2 μg/mL tetracycline, 100 μg/mL hygromycin and 500 μg/mL gneticin. The cell culture media is exchanged for tetracycline-free cell culture media 3-7 days before the assay. One day before the assay the cell culture medium is exchanged to DMEM without glutamine and phenol red and supplemented with 10% FCS, 100 μg/mL hygromycin and 500 μg/mL geneticin. On the assay day, the medium of the subconfluent cultures is removed and the cells are detached by addition of 2.5 ml EDTA(0.02%) per 175 cm2 culture flask for 1 minute. The cells are resuspend in Ringer solution (140 mM NaCl, 5 mM KCl, 2.5 mM CaCl2, 1.5 mM MgCl2, 5 mM Glucose, 10 mM Hepes; adjusted to pH 7.4 with NaOH), pooled and Ringer solution added to adjust the volume to 50 mL. The cell suspension is centrifuged for […] at 1500 U/min (425 g). The supernatant is removed and the cells washed a second time with 50 ml fresh Ringer solution and centrifuged again as before. The supernatant is again removed and the pellet resuspended in Ringer solution to 1,000,000 cells/ml (1×10^6 cells/mL). The cells are plated onto BD BioCoat Poly-D-Lysine 384 well plates (20,000 cells/well; 20 μl/well). The lid covered plates are then incubated until use at 37° C./10% CO2. For dye loading, 20 μl of Calcium-4 assay kit solution (prepared according to the manufacturer's description in Ringer solution) are added to the cells and the plates are incubated for […] 37° C. and then […] at room temperature.
Controls, Compound Dilution and Assay Execution:
Each assay plate contained wells with “high” and “low” controls:
Low controls 1% DMSO/ringer solution + basal glutamate activation (defined as 100% CTL).
High controls 10 μM CDPPB+ basal glutamate activation (defined as 200% CTL).
Test compounds are dissolved and diluted in DMSO to 100-fold the desired concentrations. In a second step, the compounds are diluted in Ringer solution such that the compounds are 4-fold more concentrated than the desired final assay concentration. The final DMSO concentration was 1%.
20 μl of each compound solution are then transferred to the assay plate and the Ca2+ kinetic is measured to determine any intrinsic compound activity. After 5 mM incubation in the FLIPR device, the second stimulation with 20 μl of glutamate in Ringer solution (glutamate concentration adjusted to approximately 5% basal stimulation of the maximal possible glutamate effect) is added and the kinetic Ca2+ response of the wells was measured for the modulation effect.
The peak height of the Ca release related fluorescence signal (9-66) is used for the EC50. The EC50 of the modulation is calculated over a nonlinear regression with GraphPad Prism (Table 1).

T1 sequence (P41594 21-1212): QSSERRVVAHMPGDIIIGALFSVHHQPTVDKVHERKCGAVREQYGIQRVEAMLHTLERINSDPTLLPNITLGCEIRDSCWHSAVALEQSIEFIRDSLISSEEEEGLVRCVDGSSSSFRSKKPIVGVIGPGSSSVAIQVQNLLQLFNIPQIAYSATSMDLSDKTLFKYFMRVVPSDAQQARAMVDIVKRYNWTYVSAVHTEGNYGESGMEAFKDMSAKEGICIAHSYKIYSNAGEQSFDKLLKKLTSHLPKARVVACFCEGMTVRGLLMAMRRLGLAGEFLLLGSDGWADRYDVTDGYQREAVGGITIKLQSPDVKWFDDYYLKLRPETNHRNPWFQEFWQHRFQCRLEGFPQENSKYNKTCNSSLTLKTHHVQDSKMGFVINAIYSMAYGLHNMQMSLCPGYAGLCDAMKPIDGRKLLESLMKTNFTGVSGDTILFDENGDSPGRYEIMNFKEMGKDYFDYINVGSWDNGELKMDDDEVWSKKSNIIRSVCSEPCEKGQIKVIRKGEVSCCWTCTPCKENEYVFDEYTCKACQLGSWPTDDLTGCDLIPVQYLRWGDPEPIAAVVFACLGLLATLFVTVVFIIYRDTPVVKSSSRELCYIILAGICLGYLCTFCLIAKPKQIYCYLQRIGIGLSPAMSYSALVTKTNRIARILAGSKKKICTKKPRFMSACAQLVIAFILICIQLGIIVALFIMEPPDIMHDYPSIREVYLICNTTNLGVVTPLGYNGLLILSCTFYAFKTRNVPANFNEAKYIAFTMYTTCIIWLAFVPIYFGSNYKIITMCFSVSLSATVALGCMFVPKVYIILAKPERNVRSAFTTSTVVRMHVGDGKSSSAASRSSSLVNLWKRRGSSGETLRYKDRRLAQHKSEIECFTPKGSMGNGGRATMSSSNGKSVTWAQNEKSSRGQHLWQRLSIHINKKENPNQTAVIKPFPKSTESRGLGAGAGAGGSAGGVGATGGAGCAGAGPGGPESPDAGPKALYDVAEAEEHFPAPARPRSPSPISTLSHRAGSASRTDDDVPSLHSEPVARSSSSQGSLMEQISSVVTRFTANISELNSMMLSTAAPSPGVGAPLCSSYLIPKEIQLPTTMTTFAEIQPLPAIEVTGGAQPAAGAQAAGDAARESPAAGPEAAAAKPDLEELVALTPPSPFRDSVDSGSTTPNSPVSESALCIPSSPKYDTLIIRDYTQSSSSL

Row | Structure (SMILES) | pEC50
1 | Nc1nc2c(s1)CCN(C(=O)Cc1nc(-c3ccc(F)cc3)cn1-c1ccc(F)cc1)CC2 [Example 7.01.02.] | 6.96
2 | COc1cccc(N2CCN(C(=O)Cc3nc(-c4ccc(F)c(C)c4)cn3-c3ccccc3)CC2=O)c1 [Example 7.02.27.] | 7.03
3 | COc1ccc(-c2cn(-c3ccccc3)c(CC(=O)N3CCc4nc(C)oc4C3)n2)cc1 [Example 7.02.25.] | 5.84
4 | Cc1nc2c(s1)CCN(C(=O)Cc1nc(-c3ccc(Cl)c(C)c3)cn1-c1ccc(F)cc1)CC2 [Example 7.02.15.] | 7.35
5 | Cc1nc2c(s1)CN(C(=O)Cc1nc(-c3ccc(F)cc3)cn1-c1ccc(F)cc1)C2 [Example 7.02.03.] | 6.68
6 | Cc1nc2c(o1)CN(C(=O)Cc1nc(-c3ccc(F)cc3)cn1-c1ccc(F)cc1)CC2 [Example 7.01.01., 2-(1,4-Bis-(4-fluoro-phenyl)-1H-imidazol-2-yl)-1-(2-methyl-6,7-dihydro-4H-oxazolo[5,4-c]pyridin-5-yl)-ethanone] | 6.11
7 | Cc1cc(-c2cn(-c3ccccc3)c(CC(=O)N3CCc4nc(N)sc4CC3)n2)ccc1F [Example 7.02.26.] | 7.15
8 | Cc1ccc(-c2cn(-c3ccc(F)cc3)c(CC(=O)N3Cc4nc(C)sc4C3)n2)cc1 [Example 7.02.09.] | 7.05
9 | COc1ccc(-c2cn(-c3ccccc3)c(CC(=O)N3CCc4nc(N)sc4CC3)n2)cc1 [Example 7.02.23.] | 6.40
10 | Cc1nc2c(s1)CCN(C(=O)Cc1nc(-c3ccc(F)c(C)c3)cn1-c1ccc(F)cc1)CC2 [Example 7.02.18.] | 7.17
11 | Cc1ccc(-c2cn(-c3ccc(F)cc3)c(CC(=O)N3CCc4nc(N)sc4CC3)n2)cc1 [Example 7.02.05.] | 7.28
12 | Cc1nc2c(s1)CCN(C(=O)Cc1nc(-c3ccc(F)c(C)c3)cn1-c1ccccc1)CC2 [Example 7.02.29.] | 7.48
13 | Cc1nc2c(s1)CCN(C(=O)Cc1nc(-c3ccc(F)cc3)cn1-c1ccc(F)cc1)CC2 [Example 7.02.01., 2-[1,4-Bis-(4-fluoro-phenyl)-1H-imidazol-2-yl]-1-(2-methyl-4,5,7,8-tetrahydro-thiazolo[4,5-d]azepin-6-yl)-ethanone] | 7.03
14 | COc1cccc(-c2cn(-c3ccc(F)cc3)c(CC(=O)N3CCc4nc(C)oc4C3)n2)c1 [Example 7.02.21.] | 5.95
15 | COc1cccc(N2CCN(C(=O)Cc3nc(-c4ccc(C)cc4)cn3-c3ccc(F)cc3)CC2=O)c1 [Example 7.02.07.] | 7.02
16 | Cc1cc(-c2cn(-c3ccc(F)cc3)c(CC(=O)N3CCc4nc(N)sc4CC3)n2)ccc1Cl [Example 7.02.16.] | 7.15
17 | COc1ccc(-c2cn(-c3ccccc3)c(CC(=O)N3CCc4nc(C)sc4CC3)n2)cc1 [Example 7.02.24.] | 6.90
18 | Cc1nc2c(o1)CN(C(=O)Cc1nc(-c3ccc(F)c(C)c3)cn1-c1ccc(F)cc1)CC2 [Example 7.02.19.] | 7.17
19 | COc1ccc(-c2cn(-c3ccc(F)cc3)c(CC(=O)N3CCN(c4cccc(C#N)c4)C(=O)C3)n2)cc1 [Example 7.02.30.] | 7.09
20 | Cc1ccc(-c2cn(-c3ccc(F)cc3)c(CC(=O)N3CCN(c4cccc(C#N)c4)C(=O)C3)n2)cc1 [Example 7.02.08.] | 7.49

Other lines, results leading:

Row | pEC50 | Structure (SMILES)
21 | 6.86 | COc1cccc(-c2cn(-c3ccc(F)cc3)c(CC(=O)N3CCc4nc(C)sc4CC3)n2)c1 [Example 7.02.22.]
22 | 6.94 | O=C(Cc1nc(-c2ccc(F)cc2)cn1-c1ccc(F)cc1)N1CCN(c2noc3ccccc23)CC1 [Example 7.02.02.]
23 | 6.99 | COc1ccc(-c2cn(-c3ccc(F)cc3)c(CC(=O)N3CCc4nc(N)sc4CC3)n2)cc1 [Example 7.02.11.]
24 | 7.15 | Cc1cc(-c2cn(-c3ccc(F)cc3)c(CC(=O)N3CCc4nc(N)sc4CC3)n2)ccc1F [Example 7.02.20.]
25 | 7.32 | Cc1nc2c(s1)CN(C(=O)Cc1nc(-c3ccc(F)c(C)c3)cn1-c1ccccc1)C2 [Example 7.02.28.]
26 | 7.41 | COc1ccc(-c2cn(-c3ccc(F)cc3)c(CC(=O)N3CCc4nc(C)sc4CC3)n2)cc1 [Example 7.02.12.]
27 | 7.13 | COc1ccc(-c2cn(-c3ccc(F)cc3)c(CC(=O)N3CCN(c4cccc(OC)c4)C(=O)C3)n2)cc1 [Example 7.02.13.]
28 | 7.06 | COc1ccc(-c2cn(-c3ccc(F)cc3)c(CC(=O)N3Cc4nc(C)sc4C3)n2)cc1 [Example 7.02.14.]
29 | 7.10 | Cc1nc2c(o1)CN(C(=O)Cc1nc(-c3ccc(Cl)c(C)c3)cn1-c1ccc(F)cc1)CC2 [Example 7.02.17.]
30 | 7.03 | Cc1ccc(-c2cn(-c3ccc(F)cc3)c(CC(=O)N3CCc4nc(C)sc4CC3)n2)cc1 [Example 7.02.06.]
31 | 6.43 | Cc1ccc(-c2cn(-c3ccc(F)cc3)c(CC(=O)N3CCc4nc(C)oc4C3)n2)cc1 [Example 7.02.04.]
